Experimental data published in patent US20110237538A1, “TREATMENT OF LYSOSOMAL STORAGE DISORDERS AND OTHER PROTEOSTATIC DISEASES” (SUMMIT CORPORATION PLC, priority 2008, published 2011).

How the values were obtained:
Format in all cases: biochemical
[1] = target: T1, wild type (wt) beta-glucocerebrosidase (Homo sapiens, UniProt P04062); test: beta-glucocerebrosidase activity assay in HL60 lysate (4MU-β-D-glc); settings: at a concentration of 100 μM, 0.5 mM 4MU-β-D-glc;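 note: fluorometric read-out of 4MU liberated from the substrate (ex 360 nm, em 450 nm) after 37 °C incubation, reaction stopped with sodium carbonate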
T1 construct: The lysates were used as a source for wild type (wt) beta-glucocerebrosidase; endogenous in cells; host or cells: HL60 (ECACC No. 98070106) lysate
T1 sequence (P04062 40-536): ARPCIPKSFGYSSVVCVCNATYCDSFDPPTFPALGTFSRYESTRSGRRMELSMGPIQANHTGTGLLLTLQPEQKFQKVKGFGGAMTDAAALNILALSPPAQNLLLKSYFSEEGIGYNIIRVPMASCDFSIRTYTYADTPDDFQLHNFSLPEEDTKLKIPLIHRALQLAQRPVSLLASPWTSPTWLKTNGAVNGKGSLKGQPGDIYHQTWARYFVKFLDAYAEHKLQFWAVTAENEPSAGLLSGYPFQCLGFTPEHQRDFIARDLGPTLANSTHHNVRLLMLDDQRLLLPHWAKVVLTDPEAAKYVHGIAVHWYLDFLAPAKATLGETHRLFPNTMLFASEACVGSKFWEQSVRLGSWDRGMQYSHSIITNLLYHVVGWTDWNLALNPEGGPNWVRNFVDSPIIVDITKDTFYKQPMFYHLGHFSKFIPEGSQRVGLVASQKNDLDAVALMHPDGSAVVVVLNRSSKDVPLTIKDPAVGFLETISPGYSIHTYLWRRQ

[2] = target: T2, wild type (wt) lysosomal alpha-glucosidase (Homo sapiens, UniProt P10253); test: alpha-glucosidase activity assay in HL60 lysate (4MU-α-D-glc); settings: at a concentration of 100 uM, 0.5 mM 4MU-α-D-glc, pH 4.5;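 note: fluorometric rate of 4MU product release read at 360 nm excitation and 450 nm emission, reactions run at 37 °C in citric phosphate buffer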
T2 construct: The lysates were used as a source for wild type (wt) lysosomal alpha-glucosidase; endogenous in cells; host or cells: HL60 (ECACC No. 98070106) lysate

[3] = test system: α-D-glucosidase (Bacillus sterothermophilus); test: glycosidase assay with p-nitrophenyl substrates (Example 2); settings: 10 μl of 5 mM iminosugar solution in 70 μl incubation mixture; 20° C.
Experimental: The assays were conducted as described by Watson et al. 1997, Phytochemistry 46: 255-259 using p-nitrophenyl-substrates. Assays were carried out in microtitre plates. Enzymes were assayed in 0.1M citric acid/0.2M di-sodium hydrogen phosphate (Mcllvaine) buffers at the optimum pH for the enzyme. All assays were carried out at 20° C. All enzymes and substrates were purchased from Sigma Aldrich Chemicals Limited. The incubation mixture consisted of 10 μl of enzyme solution, 10 μl of the iminosugars solution (made up in deionised water at 5 mM) and 50 μl of the appropriate 5 mM p-nitrophenyl substrate made up in McIlvaine buffer at the optimum pH for the enzyme. The reactions were stopped with 0.4M glycine (pH 10.4) during the exponential phase of the reaction, which was determined at the beginning of the assay using blanks with water, which were incubated for a range of time periods to measure the reaction rate using 5 mM substrate solution. Absorbances were read at 405 nm. Water was substituted for the inhibitors in the blanks.
The glycosidases used were α-D-glucosidase (yeast), α-D-glucosidase (Bacillus sterothermophilus), α-D-glucosidase (rice), amyloglucosidase (Aspergillus niger), β-D-glucosidase (almond), α-D-galactosidase (green coffee beans), β-D-galactosidase (bovine liver), α-L-fucosidase (bovine kidney), α-D-mannosidase (Jack bean), β-D-mannosidase (Cellullomonas fimi), Naringinase (Penicillium decumbens), N-acetyl-β-D-glucosaminidase (Bovine kidney), N-acetyl-β-D-glucosaminidase (Aspergillus oryzae) and N-acetyl-β-D-glucosaminidase (Jack bean)

Structure (SMILES) | inhibition at 100 µM [1] | inhibition at 100 µM [2] | Promotion of glycosidase activity: α-D-glucosidase (Bacillus sterothermophilus) [3]
OCC1OC(O[C@@H]2[C@@H](O)[C@H](O)[C@]3(O)CC[C@H]2N3)C(O)C(O)C1O (stereo partly drawn) [Compound 105, (1R,2S,3S,4S,5R)-4-(3,4,5-trihydroxy-6-(hydroxymethyl)tetrahydro-2H-pyran-2-yloxy)-8-azabicyclo[3.2.1]octane-1,2,3-triol] | > 50% |  | 
OC[C@H]1[C@@H](O)[C@H](O)[C@H]2[C@H](O)[C@@H](O)CN21 [Compound 129, (1R,2R,3S,6S,7S,7aR)-3-(hydroxymethyl)hexahydro-1H-pyrrolizine-1,2,6,7-tetraol] | > 50% |  | 
CCCCOC(=O)[C@@H]1[C@@H](O)[C@H](O)[C@@H](O)CN1CCCC [Compound 205, (2S,3R,4R,5S)-butyl 1-butyl-3,4,5-trihydroxypiperidine-2-carboxylate] |  |  | 60 % increase in absorbance compared to the water controls
O=C(CCCCO)CCCCCCC[C@@H](O)[C@H]1N[C@H](CO)[C@@H](O)[C@@H]1O [Compound 226, (R)-13-((2R,3R,4R,5R)-3,4-dihydroxy-5-(hydroxymethyl)pyrrolidin-2-yl)-1,13-dihydroxytridecan-5-one] | > 50% |  | 
CCCCNC(=O)C1N[C@@H](C)[C@H](O)[C@@H](O)[C@H]1O (stereo partly drawn) [Compound 265, (3S,4R,5S,6S)-N-butyl-3,4,5-trihydroxy-6-methylpiperidine-2-carboxamide] | > 50% |  | 
C[C@@H]1NC(C(=O)NCc2ccccc2)[C@H](O)[C@H](O)[C@H]1O (stereo partly drawn) [Compound 267, (3S,4R,5S,6S)-N-benzyl-3,4,5-trihydroxy-6-methylpiperidine-2-carboxamide] | > 50% |  | 
OC[C@H]1CNC[C@@H](O)[C@@H]1O [Compound 279, (3R,4R,5R)-5-(Hydroxymethyl)-3,4-piperidinediol] | > 50% |  | 
OC[C@H]1[C@@H](O)[C@H](O)CN1CC1CCCCC1 [Compound 320, (2S,3R,4R)-1-(cyclohexylmethyl)-2-(hydroxymethyl)pyrrolidine-3,4-diol] | > 50% |  | 
OC[C@@H]1[C@@H](O)[C@H](O)[C@@H](CO)N1CCCOc1ccccc1 [Compound 343, (2R,3R,4R,5R)-2,5-bis(hydroxymethyl)-1-(3-phenoxypropyl)pyrrolidine-3,4-diol] | > 50% | > 50% | 
OC[C@@H]1[C@@H](O)[C@H](O)CN1CCCOc1ccccc1 [Compound 349, (2R,3R,4R)-2-(hydroxymethyl)-1-(3-phenoxypropyl)pyrrolidine-3,4-diol] | > 50% |  | 
CCCCN1C[C@H](CO)[C@@H](O)[C@H](O)C1 [Compound 419, (3R,4R,5R)-1-butyl-5-(hydroxymethyl)piperidine-3,4-diol] | > 50% |  | 
O=C(O)CN1C[C@H](CO)[C@@H](O)[C@H](O)C1 [Compound 450, 2-((3R,4R,5R)-3,4-dihydroxy-5-(hydroxymethyl)piperidin-1-yl)acetic acid] | > 50% |  | 
CCCCCCCCCN1[C@H](CO)[C@@H](O)[C@H](O)[C@H]1CO [Compound 555, (2R,3R,4R,5R)-2,5-bis(hydroxymethyl)-1-nonylpyrrolidine-3,4-diol] | > 50% |  | 
CCCCCCCCCN1C[C@@H](O)[C@H](O)[C@H]1CO [Compound 568, (2R,3R,4R)-2-(hydroxymethyl)-1-nonylpyrrolidine-3,4-diol] | > 50% |  | 
OCCN1C[C@@H](CO)[C@H](O)[C@@H](O)C1 [Compound 640, (3S,4S,5S)-1-(2-hydroxyethyl)-5-(hydroxymethyl)piperidine-3,4-diol] | > 50% |  | 
OC[C@@H]1CNC[C@H](O)[C@H]1O [Compound 641, (3S,4S,5S)-5-(hydroxymethyl)piperidine-3,4-diol] | > 50% |  | 
NC[C@H]1[C@@H](O)[C@@H](O)CN1Cc1ccc(-c2ccccc2)cc1 [Compound 686, (2S,3R,4S)-2-(aminomethyl)-1-(biphenyl-4-ylmethyl)pyrrolidine-3,4-diol] | > 50% |  | 
O=C(NC[C@H]1[C@@H](O)[C@@H](O)CN1Cc1ccc(-c2ccccc2)cc1)c1ccc(-c2ccccc2)cc1 [Compound 701, N-(((2S,3R,4S)-1-(biphenyl-4-ylmethyl)-3,4-dihydroxypyrrolidin-2-yl)methyl)biphenyl-4-carboxamide] | > 50% |  | 
CCCCCCCCCN1C[C@@H](O)[C@H](O)[C@H](O)[C@@H](O)C1 [Compound 736, (3R,4S,5R,6S)-1-nonylazepane-3,4,5,6-tetraol] | > 50% |  | 

Further lines, with some results ahead:

inhibition at 100 µM [1] | inhibition at 100 µM [2] | Structure (SMILES) | Promotion of glycosidase activity: α-D-glucosidase (Bacillus sterothermophilus) [3]
> 50% | > 50% | CN1C[C@H](O)[C@@H](O)[C@H](O)[C@H]1CO [Compound 3, (2R,3R,4R,5S)-2-(hydroxymethyl)-1-methylpiperidine-3,4,5-triol] | 
> 50% |  | OCC1OC(CO)(O[C@H]2[C@H](O)[C@H](O)[C@H](CO)N[C@@H]2CO)C(O)C1O (stereo partly drawn) [Compound 77, (2S,3R,4R,5R,6R)-5-(3,4-dihydroxy-2,5-bis(hydroxymethyl)tetrahydrofuran-2-yloxy)-2,6-bis(hydroxymethyl)piperidine-3,4-diol] | 
> 50% | > 50% | O[C@H]1[C@H](O)[C@@H](O)CN2CC[C@H](O)[C@H]12 [Compound 104, (1S,6S,7R,8R,8aR)-octahydroindolizine-1,6,7,8-tetraol] | 
> 50% | > 50% | OC[C@@H]1NC[C@H](O)[C@H]1O [Compound 160, (2S,3S,4S)-2-(hydroxymethyl)pyrrolidine-3,4-diol] | 
> 50% |  | OC[C@@H]1CNC[C@@H](O)[C@H]1O [Compound 219, (3R,4S,5S)-5-(hydroxymethyl)piperidine-3,4-diol] | 
> 50% | > 50% | OC[C@@H]1[C@@H](O)[C@H](O)[C@@H](O)CN1CCCOc1ccccc1 [Compound 288, (2R,3R,4R,5S)-2-(hydroxymethyl)-1-(3-phenoxypropyl)piperidine-3,4,5-triol] | 
> 50% |  | OCCN1C[C@H](CO)[C@@H](O)[C@H](O)C1 [Compound 420, (3R,4R,5R)-1-(2-hydroxyethyl)-5-(hydroxymethyl)piperidine-3,4-diol] | 
> 50% |  | O=C(O)CN1C[C@@H](CO)[C@H](O)[C@@H](O)C1 [Compound 451, 2-((3S,4S,5S)-3,4-dihydroxy-5-(hydroxymethyl)piperidin-1-yl)acetic acid] | 
> 50% | > 50% | OC[C@@H]1[C@@H](O)[C@H](O)[C@@H](O)CN1Cc1ccc(-c2ccccc2)cc1 [Compound 524, (2R,3R,4R,5S)-1-(biphenyl-4-ylmethyl)-2-(hydroxymethyl)piperidine-3,4,5-triol] | 
> 50% | > 50% | OC[C@@H]1[C@@H](O)[C@H](O)[C@@H](CO)N1CCOCc1ccccc1 [Compound 556, (2R,3R,4R,5R)-1-(2-(benzyloxy)ethyl)-2,5-bis(hydroxymethyl)pyrrolidine-3,4-diol] | 
> 50% |  | OCCCCCCCCCN1[C@H](CO)[C@@H](O)[C@H](O)[C@H]1CO [Compound 557, (2R,3R,4R,5R)-2,5-bis(hydroxymethyl)-1-(9-hydroxynonyl)pyrrolidine-3,4-diol] | 
> 50% |  | O=C(NC[C@@H]1[C@@H](O)[C@@H](O)CN1Cc1ccc(-c2ccccc2)cc1)c1ccccc1 [Compound 649, N-(((2R,3R,4S)-1-(biphenyl-4-ylmethyl)-3,4-dihydroxypyrrolidin-2-yl)methyl)benzamide] | 
> 50% | > 50% | OCCCCCCCCCN1C[C@H](O)[C@@H](O)[C@H](O)[C@H]1CO [Compound 724, (2R,3R,4R,5S)-2-(hydroxymethyl)-1-(9-hydroxynonyl)piperidine-3,4,5-triol] | 
> 50% |  | O[C@H]1[C@H](O)[C@H](O)CN(CCCCCOCC23CC4CC(CC(C4)C2)C3)C[C@H]1O [Compound 766, (3R,4R,5R,6R)-1-(5-(adamantan-1-yl-methoxy)-pentyl)azepane-3,4,5,6-tetraol] | 
